Key:
[1] = target: human recombinant Btk (Homo sapiens, UniProt Q06187); test: Btk enzymatic activity assay (Caliper-based kinase assay); format: biochemical; details: human recombinant Btk 2 nM, ATP 40 μM, room temperature 3 h
Procedure: A Caliper-based kinase assay (Caliper Life Sciences, Hopkinton, Mass.) was used to measure inhibition of Btk kinase activity of a compound of Formula (IA), (I′) or (I). […] The reaction was then terminated with EDTA, final concentration 20 mM and the phosphorylated reaction product was quantified on a Caliper Desktop Profiler (Caliper LabChip 3000). […] This value is presented as the IC50.

[2] = target: protein target (Homo sapiens, UniProt Q06187); test: Reversibility of binding (compound in solution before and after perturbation of the target, HPLC-MS/MS)
Procedure: The following approach was developed to differentiate compounds that form irreversible bonds with their targets, such as acrylamide compounds, from compound that bind reversibly. […] The reactions were then treated with perturbations including both denaturation with 5 M guanidine hydrochloride and digestion with trypsin, disrupting proper folding of the target. […] The concentration of compound in solution was assessed both preceding and following perturbation using high performance liquid chromatography (HPLC) coupled to tandem mass spectrometry.

protein target, sequence (Q06187 2-659): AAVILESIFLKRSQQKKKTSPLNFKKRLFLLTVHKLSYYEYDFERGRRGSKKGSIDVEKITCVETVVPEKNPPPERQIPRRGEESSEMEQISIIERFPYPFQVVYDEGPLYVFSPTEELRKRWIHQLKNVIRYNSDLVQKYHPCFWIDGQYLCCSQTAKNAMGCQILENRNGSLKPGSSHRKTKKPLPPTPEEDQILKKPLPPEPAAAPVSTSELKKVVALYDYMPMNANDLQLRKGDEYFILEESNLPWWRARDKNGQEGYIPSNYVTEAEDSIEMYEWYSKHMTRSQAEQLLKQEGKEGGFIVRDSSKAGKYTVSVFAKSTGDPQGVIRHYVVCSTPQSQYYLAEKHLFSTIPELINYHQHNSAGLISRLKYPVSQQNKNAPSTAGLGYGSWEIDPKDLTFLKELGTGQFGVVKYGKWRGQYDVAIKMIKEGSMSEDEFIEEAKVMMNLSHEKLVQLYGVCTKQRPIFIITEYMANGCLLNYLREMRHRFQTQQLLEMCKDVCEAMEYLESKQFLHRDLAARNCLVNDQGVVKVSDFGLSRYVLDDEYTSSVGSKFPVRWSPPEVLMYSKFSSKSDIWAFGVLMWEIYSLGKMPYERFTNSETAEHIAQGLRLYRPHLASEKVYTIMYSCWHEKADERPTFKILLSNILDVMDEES
human recombinant Btk, sequence (Q06187 whole entry): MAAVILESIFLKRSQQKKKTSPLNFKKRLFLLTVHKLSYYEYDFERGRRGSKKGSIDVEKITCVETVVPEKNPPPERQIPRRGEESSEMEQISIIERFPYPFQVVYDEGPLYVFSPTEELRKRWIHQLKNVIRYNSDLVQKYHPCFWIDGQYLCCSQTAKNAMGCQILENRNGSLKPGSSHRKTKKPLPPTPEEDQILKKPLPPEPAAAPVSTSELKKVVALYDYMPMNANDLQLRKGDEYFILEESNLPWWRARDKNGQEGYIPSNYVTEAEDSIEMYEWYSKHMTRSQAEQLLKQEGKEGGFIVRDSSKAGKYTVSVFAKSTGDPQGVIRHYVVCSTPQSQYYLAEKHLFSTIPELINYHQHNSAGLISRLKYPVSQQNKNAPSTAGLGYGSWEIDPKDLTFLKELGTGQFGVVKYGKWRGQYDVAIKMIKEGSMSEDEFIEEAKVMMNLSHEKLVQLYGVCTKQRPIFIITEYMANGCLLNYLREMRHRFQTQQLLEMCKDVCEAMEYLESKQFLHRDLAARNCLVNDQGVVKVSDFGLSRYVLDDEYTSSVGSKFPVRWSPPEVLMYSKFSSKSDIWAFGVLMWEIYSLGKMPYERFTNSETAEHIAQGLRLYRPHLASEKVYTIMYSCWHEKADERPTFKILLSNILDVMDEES

| Compound | IC50 ([1]; compounds of Cpd Table 1) | IC50 ([1]; compounds of Cpd Table 2) | also measured |
| --- | --- | --- | --- |
| CC(C)(C)C=C(C#N)C(=O)N1CCCC(n2nc(-c3ccc(Oc4ccccc4)cc3)c3c(N)ncnc32)C1 (stereo not drawn) [Example 7, 2-(3-(4-amino-3-(4-phenoxyphenyl)-1H-pyrazolo[3,4-d]pyrimidin-1-yl)piperidine-1-carbonyl)-4,4-dimethylpent-2-enenitrile] | 1.3 nM |  |  |
| N#CC(=CC1CC1)C(=O)N1CCC[C@@H](n2cc(-c3ccc(Oc4ccccc4)cc3)c3c(N)ncnc32)C1 [Example 27, (R)-2-(3-(4-amino-5-(4-phenoxyphenyl)-7H-pyrrolo[2,3-d]pyrimidin-7-yl)piperidine-1-carbonyl)-3-cyclopropylacrylonitrile] |  |  | compound in solution following perturbation of the target ([2]; after 5 M guanidine hydrochloride denaturation and trypsin digestion): returned to solution; Compound in solution in the denatured or digested state? ([2]; after denaturation with 5 M guanidine hydrochloride and digestion with trypsin): yes; depletion of compound from solution in the native (folded) state ([2]; before perturbation): depleted; Compound in solution in the native state? ([2]; protein target at higher concentration than compound, before perturbation): no |
| NC(=O)C(=CC1CC1)C(=O)N1CCC[C@@H](n2nc(-c3ccc(Oc4ccccc4F)cc3)c3c(N)ncnc32)C1 [Example 32A] | 1.7 nM |  |  |
| CC(Cn1nc(-c2ccc(Oc3ccccc3)cc2F)c2c(N)ncnc21)NC(=O)C(C#N)=CC(C)(C)N (stereo not drawn) [Example 195] | 6 nM |  |  |
| N#CC(=CC1CC1)C(=O)N1CCCC(n2nc(-c3ccc(NC(=O)c4ccc(C(F)(F)F)cc4)cc3)c3c(N)ncnc32)C1 (stereo not drawn) [Table 2-1, N-(4-(4-amino-1-(1-(2-cyano-3-cyclopropylacryloyl)piperidin-3-yl)-1H-pyrazolo[3,4-d]pyrimidin-3-yl)phenyl)-4-(trifluoromethyl)benzamide] |  | 62 nM |  |
| N#CC(=CC1CC1)C(=O)N1CCC(n2nc(-c3ccc(NC(=O)c4ccc(C(F)(F)F)cc4)cc3)c3c(N)ncnc32)CC1 [Table 2-2, N-(4-(4-amino-1-(1-(2-cyano-3-cyclopropylacryloyl)piperidin-4-yl)-1H-pyrazolo[3,4-d]pyrimidin-3-yl)phenyl)-4-(trifluoromethyl)benzamide] |  | > 1000 nM |  |
| CC(C)(C)C=C(C#N)C(=O)N1CCCC(n2nc(-c3ccc(NC(=O)c4ccc(C(F)(F)F)cc4)cc3)c3c(N)ncnc32)C1 (stereo not drawn) [Table 2-3, N-(4-(4-amino-1-(1-(2-cyano-4,4-dimethylpent-2-enoyl)piperidin-3-yl)-1H-pyrazolo[3,4-d]pyrimidin-3-yl)phenyl)-4-(trifluoromethyl)benzamide] |  | 13 nM |  |
| CC(C)(C)C=C(C#N)C(=O)N1CCCC1Cn1nc(-c2ccc(NC(=O)c3ccc(C(F)(F)F)cc3)cc2)c2c(N)ncnc21 (stereo not drawn) [Table 2-5, N-(4-(4-amino-1-((1-(2-cyano-4,4-dimethylpent-2-enoyl)pyrrolidin-2-yl)methyl)-1H-pyrazolo[3,4-d]pyrimidin-3-yl)phenyl)-4-(trifluoromethyl)benzamide] |  | 180 nM |  |
| CC(C)(C)C=C(C#N)C(=O)N1CCC(n2nc(-c3ccc(NC(=O)c4ccc(C(F)(F)F)cc4)cc3)c3c(N)ncnc32)CC1 [Table 2-6, N-(4-(4-amino-1-(1-(2-cyano-4,4-dimethylpent-2-enoyl)piperidin-4-yl)-1H-pyrazolo[3,4-d]pyrimidin-3-yl)phenyl)-4-(trifluoromethyl)benzamide] |  | > 1000 nM |  |
| CC(C)(C)C=C(C#N)C(=O)NC1CCC(n2nc(-c3ccc(NC(=O)c4ccc(C(F)(F)F)cc4)cc3)c3c(N)ncnc32)CC1 (stereo not drawn) [Table 2-8, N-(4-(4-amino-1-((1r,4r)-4-(2-cyano-4,4-dimethylpent-2-enamido)cyclohexyl)-1H-pyrazolo[3,4-d]pyrimidin-3-yl)phenyl)-4-(trifluoromethyl)benzamide] |  | > 1000 nM |  |
| CC(C)(C)C=C(C#N)C(=O)NC1CCC(n2nc(-c3ccc(NC(=O)c4ccc(C(F)(F)F)cc4)cc3)c3c(N)ncnc32)CC1 (stereo not drawn) [Table 2-10, N-(4-(4-amino-1-((1s,4s)-4-(2-cyano-4,4-dimethylpent-2-enamido)cyclohexyl)-1H-pyrazolo[3,4-d]pyrimidin-3-yl)phenyl)-4-(trifluoromethyl)benzamide] |  | > 1000 nM |  |
| COc1cc(-c2nn(C3CCCN(C(=O)C(C#N)=CC4CC4)C3)c3ncnc(N)c23)ccc1Oc1ccc(Cl)c(Cl)c1 (stereo not drawn) [compound 4] | 61 nM |  |  |
| COc1cc(-c2nn(C3CCN(C(=O)C(C#N)=CC4CC4)CC3)c3ncnc(N)c23)ccc1Oc1ccc(Cl)c(Cl)c1 [compound 6] | 365 nM |  |  |
| COc1cc(-c2nn(C3CCN(C(=O)C(C#N)=CC(C)(C)C)CC3)c3ncnc(N)c23)ccc1Oc1ccc(Cl)c(Cl)c1 [compound 9] | 980 nM |  |  |
| N#CC(=CC1CC1)C(=O)NC1CCC(n2nc(-c3ccc(Oc4ccccc4)cc3)c3c(N)ncnc32)CC1 (stereo not drawn) [compound 11] | 14 nM |  |  |

From patent US8962831B2, “Tyrosine kinase inhibitors” (Principia Biopharma Inc., priority 2011, dated 2015)
